US11179372B2, “Isoxazoline solution containing vitamin E for use with sanitized drinking water” (Intervet Inc., priority 2015, dated 2021)

Test system: poultry red mite (D. gallinae)
Assay: Efficacy of Fluralaner in medicated drinking water against poultry red mite infestation of laying hens
Type: in vivo, Dermanyssus gallinae
Details: for % Inhibition of mites 24 hours after infestation on day 1 / % Inhibition of mites 24 hours after infestation on day 5 / % Inhibition of mites 24 hours after infestation on day 8 / % Inhibition of mites 24 hours after infestation on day 12 / % Inhibition of mites 24 hours after infestation on day 15 / % Inhibition of mites 24 hours after infestation on day 19 / % Inhibition of mites 24 hours after infestation on day 22 / % Mortality of mites 24 hours after infestation on day 1 / % Mortality of mites 24 hours after infestation on day 5 / % Mortality of mites 24 hours after infestation on day 8 / % Mortality of mites 24 hours after infestation on day 12 / % Mortality of mites 24 hours after infestation on day 15 / % Mortality of mites 24 hours after infestation on day 19 / % Mortality of mites 24 hours after infestation on day 22: laying hens
Excerpt: The drinking water used was regular tap water not comprising a significant amount of oxidising sanitizer, and no vitamin E was used in the concentrated Fluralaner solution used. Experimental animals were chickens, particularly laying hens of about 30 weeks old. These were housed in a standard poultry house. Apparently healthy birds were assigned in a random way to treatment groups kept separately, and labelled individually. The birds were kept under natural light, and were given several days for acclimatization; drinking water consumption in each group was measured on three days prior to administration to calculate the average daily water consumption. Medicated water was prepared by diluting a concentrated Fluralaner solution (10 mg/ml) to the desired concentration of Fluralaner in regular tap water (hypochlorite <0.5 ppm). […] Groups A-D (n=6) were treated with doses of 2, 1 or 0.5 mg Fluralaner/kg BW once, or with 1 mg Fluralaner/kg BW in a repeated dose of 0.5 mg/kg BW on 2 occasions, 7 days apart. On day 0 (and group D additionally on day 7), the hens in groups A-D received Fluralaner via medicated drinking water. Group E received un-medicated drinking water ad libitum. The dose to be administered was calculated based on average body weights of each treatment group, measured one day before treatment (day −1, day 6). A concentrated Fluralaner solution was diluted in the drinking water to prepare medicated drinking water ready for consumption, via the following dosing regimen: • The volume of medicated water offered per group on day 0 (group D also on day 7) was approximately 50% of the calculated mean daily water intake measured previously in the respective group in order to ensure consumption of the full dose. • Once all medicated water was consumed the other 50% volume of the mean daily water intake was supplied as unmedicated tap water in the same drinker. On days 1, 5, 8, 12, 15, 19 and 22, four of the six hens per group were infested with approximately 200 vital, D. gallinae mites (unfed nymphs and adults that had starved before infestation for 7 days). From each infested hen approximately 25 engorged mites were collected after a few hours of presence in the animal box, next they were incubated for approximately 24 hours, after which their status was observed. The dead, damaged and/or live mites were counted visually using a binocular. Mites were classified as dead if no movement was determined or mites lay in a dorsal position. Mites were classified as damaged if their movement was uncoordinated. The Mite Mortality and Mite Inhibition percentage was calculated for each treated group in comparison to a non-treated negative control group.

[1] = Group A, 2 mg/kg BW once, drinking water
[2] = Group B, 1 mg/kg BW once, drinking water
[3] = Group C, 0.5 mg/kg BW once, drinking water
[4] = Group D, 1 (2 × 0.5) mg/kg BW, days 0 and 7, drinking water

Question: For `Cc1cc(C2=NOC(c3cc(Cl)cc(Cl)c3)(C(F)(F)F)C2)ccc1C(=O)NCC(=O)NCC(F)(F)F` (stereo not drawn) [Fluralaner], which “% Inhibition of mites 24 hours after infestation on day 1” value [1] is on record?
Answer: 100%

Question: What about the “% Inhibition of mites 24 hours after infestation on day 5” value (shortened to “% Inhibition … on day 5”) [1] of the same compound?
Answer: 100%

Question: And the “% Inhibition of mites 24 hours after infestation on day 8” value (from here on “% Inhibition … on day 8”) [1]?
Answer: 100%

Question: And the “% Inhibition of mites 24 hours after infestation on day 12” value (“% Inhibition … on day 12” for short) [1]?
Answer: 100%

Question: And the “% Inhibition of mites 24 hours after infestation on day 15” value (from here on “% Inhibition … on day 15”) [1]?
Answer: 81%

Question: What about the “% Inhibition of mites 24 hours after infestation on day 19” value (from here on “% Inhibition … on day 19”) [1] of the same compound?
Answer: 14%

Question: What about the “% Inhibition of mites 24 hours after infestation on day 22” value (from here on “% Inhibition … on day 22”) [1] of the same compound?
Answer: 0%

Question: And the “% Mortality of mites 24 hours after infestation on day 1” value [1]?
Answer: 100%

Question: And the “% Mortality of mites 24 hours after infestation on day 5” value (from here on “% Mortality … on day 5”) [1]?
Answer: 100%

Question: And the “% Mortality of mites 24 hours after infestation on day 8” value (“% Mortality … on day 8” below) [1]?
Answer: 100%

Question: And the “% Mortality of mites 24 hours after infestation on day 12” value (shortened to “% Mortality … on day 12”) [1]?
Answer: 100%

Question: And the “% Mortality of mites 24 hours after infestation on day 15” value (from here on “% Mortality … on day 15”) [1]?
Answer: 77%

Question: What about the “% Mortality of mites 24 hours after infestation on day 19” value (“% Mortality … on day 19” for short) [1] of the same compound?
Answer: 1%

Question: What about the “% Mortality of mites 24 hours after infestation on day 22” value (“% Mortality … on day 22” for short) [1] of the same compound?
Answer: 0%

Question: What about the “% Inhibition of mites 24 hours after infestation on day 1” value [2] of the same compound?
Answer: 100%

Question: What about the “% Inhibition … on day 5” value [2] of the same compound?
Answer: 100%

Question: And the “% Inhibition … on day 8” value [2]?
Answer: 100%

Question: What about the “% Inhibition … on day 12” value [2] of the same compound?
Answer: 95%

Question: And the “% Inhibition … on day 15” value [2]?
Answer: 81%

Question: What about the “% Inhibition … on day 19” value [2] of the same compound?
Answer: 3%

Question: And the “% Inhibition … on day 22” value [2]?
Answer: 0%

Question: What about the “% Mortality of mites 24 hours after infestation on day 1” value [2] of the same compound?
Answer: 100%

Question: What about the “% Mortality … on day 5” value [2] of the same compound?
Answer: 100%

Question: What about the “% Mortality … on day 8” value [2] of the same compound?
Answer: 100%

Question: And the “% Mortality … on day 12” value [2]?
Answer: 94%

Question: And the “% Mortality … on day 15” value [2]?
Answer: 77%

Question: What about the “% Mortality … on day 19” value [2] of the same compound?
Answer: 2%

Question: What about the “% Mortality … on day 22” value [2] of the same compound?
Answer: 0%

Question: And the “% Inhibition of mites 24 hours after infestation on day 1” value [3]?
Answer: 100%

Question: What about the “% Inhibition … on day 5” value [3] of the same compound?
Answer: 100%

Question: What about the “% Inhibition … on day 8” value [3] of the same compound?
Answer: 100%

Question: And the “% Inhibition … on day 12” value [3]?
Answer: 75%

Question: What about the “% Inhibition … on day 15” value [3] of the same compound?
Answer: 19%

Question: What about the “% Inhibition … on day 19” value [3] of the same compound?
Answer: 0%

Question: What about the “% Inhibition … on day 22” value [3] of the same compound?
Answer: 0%

Question: And the “% Mortality of mites 24 hours after infestation on day 1” value [3]?
Answer: 100%

Question: And the “% Mortality … on day 5” value [3]?
Answer: 100%

Question: What about the “% Mortality … on day 8” value [3] of the same compound?
Answer: 97%

Question: What about the “% Mortality … on day 12” value [3] of the same compound?
Answer: 55%

Question: What about the “% Mortality … on day 15” value [3] of the same compound?
Answer: 15%

Question: And the “% Mortality … on day 19” value [3]?
Answer: 0%

Question: And the “% Mortality … on day 22” value [3]?
Answer: 0%

Question: What about the “% Inhibition of mites 24 hours after infestation on day 1” value [4] of the same compound?
Answer: 100%

Question: What about the “% Inhibition … on day 5” value [4] of the same compound?
Answer: 100%

Question: What about the “% Inhibition … on day 8” value [4] of the same compound?
Answer: 100%

Question: And the “% Inhibition … on day 12” value [4]?
Answer: 100%

Question: And the “% Inhibition … on day 15” value [4]?
Answer: 99%

Question: And the “% Inhibition … on day 19” value [4]?
Answer: 66%

Question: What about the “% Inhibition … on day 22” value [4] of the same compound?
Answer: 27%

Question: And the “% Mortality of mites 24 hours after infestation on day 1” value [4]?
Answer: 100%

Question: And the “% Mortality … on day 5” value [4]?
Answer: 100%

Question: And the “% Mortality … on day 8” value [4]?
Answer: 100%

Question: What about the “% Mortality … on day 12” value [4] of the same compound?
Answer: 100%

Question: And the “% Mortality … on day 15” value [4]?
Answer: 98%

Question: And the “% Mortality … on day 19” value [4]?
Answer: 59%

Question: What about the “% Mortality … on day 22” value [4] of the same compound?
Answer: 14%

Question: What about the “Onset of action against red mites” value (all administered doses) of the same compound?
Answer: fast onset of action
